Key:
cabbage [1] = experiment: Cabbage plant growth stimulation: fresh and dry weights; assay type: in vivo; conditions: 5, 15 or 50 ppm spray, FIGS. 1 and 2
Procedure: Market Prize, F1 cabbage seed, lot 88955, was purchased from Harris Seeds, Inc. (Rochester, N.Y.) and grown 2 plants per 4″×4″×4″ pot, 1 pot per experimental unit and 6 experimental units per each of 4 replications. The plants were spray-treated first at 2 true leaves and again 7 days later with 8 ml solution per pot.
The treatments included a non-treated control (NTC), 0.05% Breakthru® (a silicone-based surfactant obtained from Goldschmidt Chemical, Hopewell, Va.) control, and 5, 15 or 50 ppm of either Glypure® (F12; 99% high purity crystalline glycolic acid), or ammonia-neutralized Glypure® [F18; a 50% (w/v) solution made by neutralizing 70% high purity glycolic acid from DuPont with ammonium hydroxide to a pH of 4.4. Growth stimulation was assessed by measuring both the fresh and dry weights of the plants.

cabbage [2] = experiment: Cabbage drought stress: fresh and dry weights; assay type: in vivo
Procedure: Market Prize, F1 cabbage seed, lot 88955, as described in example 7, was treated identically as in example 7, except that drought stress was imposed by withholding water 7 days following the second spray and continuing to withhold water for 13 sequential days thereafter. Drought tolerance was assessed by measuring both the fresh and dried weights of the plants.

Sclerotinia minor = experiment: Colony radius of plant pathogen on amended potato dextrose agar; assay type: cell-based; conditions: in PDA, 4 days, about 23° C., FIG. 5
From the text: Sclerotinia minor culture SaM-18 was received from Krishna Subbarro, Ph.D., Univ. Calif., Davis. Potato dextrose agar (PDA) powder was purchased from Baltimore Biological Laboratory, Inc. (BBL), ammonium glycolate and glycolic acid from DuPont Specialty Chemicals and BreakThru® surfactant from Goldschmidt Chemical Corp.
PDA was made, poured into sterile disposable petri dishes (100×15 mm) and inoculated with S. minor sclerotia to start new cultures on day zero. These cultures had reached an appropriate stage of maturation for use for use in the test after two weeks of growth. Multiple 1 liter containers of PDA were made and autoclaved on day 14. These PDA containers remained in the circulating water bath at 46° C. until the solutions were ready for addition (about 2 hrs.). The glycolic acid-containing compositions were added to the 46° C. PDA through a syringe-tip 0.2 μm-pore sterile filtration disc in a positive laminar-flow sterile hood and thoroughly mixed before returning to the 46° C. water bath to await pouring. Stacks of 22 dishes were poured for each medium type and allowed to solidify and cool overnight.
On day 15, soft, white to gray, sclerotial clumps of hyphae were picked from the culture dishes with heat sterilized forceps and one clump was transferred to the center of each test medium dish. Twenty dishes of each inoculated medium were stacked and replaced into the plastic sleeves they were originally packaged in for incubation at room temperature (about 23° C.). After 4 days of growth, some of the cultures had just reached the edges of the medium. The radius of each colony was measure in mm.
Treatments were water controls, 0.05% surfactant controls, 5, 15, 50, 75 and 100 ppm of glycolic acid (F12) and 5, 15, 50, 100 and 750 ppm of ammonia-neutralized glycolic acid (F18; i.e., ammonium glycolate).

## N.O=C(O)CO [F18, ammonium glycolate]
Cabbage [1]
  plant growth (fresh and dry weights) compared to the controls: statistically significantly stimulated plant growth
  plant growth compared to equivalent amounts of F12: stimulated plant growth to a greater extent
Cabbage [2]; 5, 15 and 50 ppm, plant weight
  resistance to the effects of drought stress compared to equivalent amounts of F12: statistically significantly greater effect
Cabbage [2]; drought, water withheld 13 days, 5, 15, 50 ppm, FIG. 3
  fresh weight of the cabbage compared to controls: statistically significantly increased
Cabbage [2]; drought, water withheld 13 days, 5, 15, 50 ppm, FIG. 4
  dry weight of the cabbage compared to controls: statistically significantly increased
Sclerotinia minor
  Sclerotinia growth compared to equivalent amounts of glycolic acid: significantly more
  growth of Sclerotinia minor (colony radius) compared to controls: statistically significantly increased the growth
